Here are results for 20 compounds from patent US20150189883A1, “METHODS OF CONTROLLING INSECTS” (Syngenta Participations AG, priority 2012, published 2015).

Like-named read-outs stand apart in the source and are kept apart here.

Assay [1] has as its system Nilaparvata lugens (Brown Plant Hopper). The experiment in a line: Nilaparvata lugens (Brown Plant Hopper) rice seedling spray test, mortality. It counts as in vivo. As to conditions: read-out: Control/%.
The test system of assay [2] is Chilo suppressalis (Rice Stem Borer). The experiment in a line: Chilo suppressalis (Rice Stem Borer) treated rice leaf petri dish test, mortality. It counts as in vivo. As to conditions: read-out: Control/%. The protocol:
Nephotettix virescens (Green Leafhopper) Rice seedlings are treated with the diluted test solutions in a spray chamber. After drying, plants are infested with 10 N5 nymphs (3 replicates). 5 days after the treatment samples are checked for mortality. […] After drying, plants are infested with 20 N3 nymphs (2 replicates). 6-12 days after the treatment samples are checked for mortality. […] 10 larvae (L2) are added and the dish is covered with a filter tissue and a plastic lid. 5 days after treatment the percentage mortality is assessed (3 replicates per concentration).
The data in the comparative Examples below were obtained using the methods described above.

The mark [3] stands for this setting: Chilo suppressalis (Rice stem borer), application rate 0.2 ppm.
[4] abbreviates: Chilo suppressalis (Rice stem borer), application rate 0.8 ppm.
Where [5] appears, read: Nilaparvata lugens (Brown plant hopper), application rate 25 ppm.
Setting [6] is: Nilaparvata lugens (Brown plant hopper), application rate 50 ppm.

On to `Cc1cc(C2=NOC(c3cc(Cl)cc(Cl)c3)(C(F)(F)F)C2)ccc1C(=O)NC1(C)CSC1` (stereo not shown) [drawing 30], for which, in assay [1] (Nilaparvata lugens), the pest or weed control at 25 ppm amounted to 0% and the pest or weed control at 50 ppm was 0%.

With `Cc1cc(C2=NOC(c3cc(Cl)c(Br)c(Cl)c3)(C(F)(F)F)C2)ccc1C(=O)NC1CSC1` (stereo not shown) [drawing 25], in assay [2] (Chilo suppressalis), the pest or weed control at 0.2 ppm was found to be 97% and the pest or weed control at 0.8 ppm was 100%.

Turning to `CC1(NC(=O)c2ccc(C3=NO[C@@](c4cc(Cl)cc(Cl)c4)(C(F)(F)F)C3)cc2Cl)CSC1` [drawing 38], in assay [1] (Nilaparvata lugens), the pest or weed control at 25 ppm was found to be 0% and the pest or weed control at 50 ppm was 30%.

As to `O=C(NC1CSC1)c1ccc(C2=NO[C@@](c3cc(Cl)cc(Cl)c3)(C(F)(F)F)C2)cc1Cl` [drawing 37], in assay [1] (Nilaparvata lugens), the pest or weed control at 25 ppm is 15% and the pest or weed control at 50 ppm came to 45%.

As for `Cc1cc(C2=NCC(c3cc(Cl)cc(Cl)c3)(C(F)(F)F)C2)ccc1C(=O)NC1CSC1` (stereo not shown) [drawing 21], the pest or weed control at 0.2 ppm in assay [2] (setting [3]) was found to be 40%. In assay [2] (setting [4]), the pest or weed control at 0.8 ppm amounted to 90%.

With `Cc1cc(C2=NOC(c3cc(Cl)cc(Cl)c3)(C(F)(F)F)C2)ccc1C(=O)NC1(C)CSC1` (stereo not shown) [Reference compound, reference compound], in assay [2] (Chilo suppressalis), the pest or weed control at 0.2 ppm worked out at 30% and the pest or weed control at 0.8 ppm came out at 40%.

For the compound `O=C(NC1CSC1)c1ccc(C2=NO[C@@](c3cc(Cl)cc(Cl)c3)(C(F)(F)F)C2)cc1Cl` [drawing 27], in assay [2] (Chilo suppressalis), the pest or weed control at 0.2 ppm came to 93% and the pest or weed control at 0.8 ppm turned out to be 100%.

Regarding `Cc1cc(C2=NCC(c3cc(Cl)cc(Cl)c3)(C(F)(F)F)C2)ccc1C(=O)NC1(C)CSC1` (stereo not shown) [drawing 32], in assay [1] (setting [5]), the pest or weed control at 25 ppm came to 0%. Further, in assay [1] (setting [6]), the pest or weed control at 50 ppm was 0%.

With `Cc1cc(C2=NOC(c3cc(Cl)c(Br)c(Cl)c3)(C(F)(F)F)C2)ccc1C(=O)NC1CSC1` (stereo not shown) [drawing 35], in assay [1] (Nilaparvata lugens), the pest or weed control at 25 ppm turned out to be 30% and the pest or weed control at 50 ppm came out at 80%.

Consider `Cc1cc(C2=NCC(c3cc(Cl)cc(Cl)c3)(C(F)(F)F)C2)ccc1C(=O)NC1(C)CSC1` (stereo not shown) [drawing 22], for which the pest or weed control at 0.2 ppm in assay [2] (setting [3]) is 30%. Further, the pest or weed control at 0.8 ppm in assay [2] (setting [4]) turned out to be 60%.

On to `Cc1cc(C2=NCC(c3cc(Cl)cc(Cl)c3)(C(F)(F)F)C2)ccc1C(=O)NC1CSC1` (stereo not shown) [drawing 31], for which, in assay [1] (setting [5]), the pest or weed control at 25 ppm was determined as 100%. In addition, the pest or weed control at 50 ppm in assay [1] (setting [6]) worked out at 100%.

In the case of `CC1(NC(=O)c2ccc(C3=NO[C@@](c4cc(Cl)cc(Cl)c4)(C(F)(F)F)C3)cc2Cl)CSC1` [drawing 28], in assay [2] (Chilo suppressalis), the pest or weed control at 0.2 ppm was found to be 80% and the pest or weed control at 0.8 ppm turned out to be 97%.

In the case of `Cc1cc(C2=NCC(c3cc(Cl)cc(Cl)c3)(C(F)(F)F)C2)ccc1C(=O)NC1(C)CS(=O)(=O)C1` (stereo not shown) [drawing 34], the pest or weed control at 25 ppm in assay [1] (setting [5]) came out at 0%. In addition, the pest or weed control at 50 ppm in assay [1] (setting [6]) came out at 0%.

In the case of `Cc1cc(C2=NCC(c3cc(Cl)cc(Cl)c3)(C(F)(F)F)C2)ccc1C(=O)NC1CS(=O)(=O)C1` (stereo not shown) [drawing 33], the pest or weed control at 25 ppm in assay [1] (setting [5]) was 93%. In assay [1] (setting [6]), the pest or weed control at 50 ppm turned out to be 100%.

As to `Cc1cc(C2=NCC(c3cc(Cl)cc(Cl)c3)(C(F)(F)F)C2)ccc1C(=O)NC1(C)CS(=O)(=O)C1` (stereo not shown) [drawing 24], in assay [2] (setting [3]), the pest or weed control at 0.2 ppm was determined as 23%. For the same compound, in assay [2] (setting [4]), the pest or weed control at 0.8 ppm stood at 60%.

On to `Cc1cc(C2=NCC(c3cc(Cl)cc(Cl)c3)(C(F)(F)F)C2)ccc1C(=O)NC1CS(=O)(=O)C1` (stereo not shown) [drawing 23], for which the pest or weed control at 0.2 ppm in assay [2] (setting [3]) is 97%. Also, in assay [2] (setting [4]), the pest or weed control at 0.8 ppm was determined as 100%.

Turning to `Cc1cc(C2=NOC(c3cc(Cl)c(Br)c(Cl)c3)(C(F)(F)F)C2)ccc1C(=O)NC1(C)CSC1` (stereo not shown) [drawing 36], in assay [1] (Nilaparvata lugens), the pest or weed control at 25 ppm was found to be 0% and the pest or weed control at 50 ppm was 0%.

As to `Cc1cc(C2=NOC(c3cc(Cl)cc(Cl)c3)(C(F)(F)F)C2)ccc1C(=O)NC1CSC1` (stereo not shown) [Compound of the invention], in assay [2] (Chilo suppressalis), the pest or weed control at 0.2 ppm came to 93% and the pest or weed control at 0.8 ppm stood at 100%.

Regarding `Cc1cc(C2=NOC(c3cc(Cl)c(Br)c(Cl)c3)(C(F)(F)F)C2)ccc1C(=O)NC1(C)CSC1` (stereo not shown) [drawing 26], in assay [2] (Chilo suppressalis), the pest or weed control at 0.2 ppm amounted to 40% and the pest or weed control at 0.8 ppm was found to be 80%.

Take `Cc1cc(C2=NOC(c3cc(Cl)cc(Cl)c3)(C(F)(F)F)C2)ccc1C(=O)NC1CSC1` (stereo not shown) [drawing 29]: in assay [1] (Nilaparvata lugens), the pest or weed control at 25 ppm stood at 44% and the pest or weed control at 50 ppm is 79%.
